“Also recorded” adds a separate entry of the source. Where two headings read alike, the source gives them in different places.
Key:
[1] = tested on: human U251 (glioblastoma) CNS tumor cells; settings: for median day of death and median survival time: iv, 240 h
Source text: Tumor Model: Each animal was implanted with one million U251 human CNS tumor cells from an in vitro cell line by ic injection with a 25 gauge needle. The day of tumor implantation (May 24, 2006) was designated as day 0. A sufficient number of mice were implanted so that animals with body weights in a range as narrow as possible were selected for the trial on the day of treatment initiation (day 1 after tumor implantation). Animals were randomly assigned to the treatment groups and individually identified by earmark codes.
A portion of this solution was then diluted with the complete vehicle to achieve the lower dosing concentration of 1.2 mg/mL. […] Temozolomide (Temodar, Schering Corporation) was prepared on each day of injection in Klucel+tween 80 at a concentration of 4 mg/mL. Temozolomide was administered within 5 minutes of formulation on the basis of exact body weight using a volume of 0.2 mL/10 g of body weight.
Data Collection: Animal health surveillance was conducted and mortality data were collected daily. The animals were weighed twice weekly starting with the first day of treatment.
Study Duration: The study was terminated 100 days after tumor implantation. Any animal found moribund or whose body weight dropped below 14 g was euthanized prior to study termination.
Parameters Evaluated: Number of 100-day survivors, median day of death, and the increase in lifespan based on median day of death and expressed as a percentage (% ILS), median survival time and the % ILS based on median survival time.
Administration of the Ringer's solution was initiated when animal body weights dropped by greater than 10% and continued until the animal recovered, died, or was euthanized.

[2] = Phase 1 Study S-(1)-01, i.v. weekly x3 in a 28-day cycle, safety and pharmacokinetics; format: in vivo, patients; settings: for AUC0-24 / Cl / Vss / t1/2: Study S-(1)-01 (50:50 Cremophor EL-P/ethanol), i.v., first dose
Description: Both trials have enrolled patients with advanced solid tumors, non-Hodgkin's lymphoma or Hodgkin's lymphoma that have recurred or progressed following at least standard therapy; patients with malignancies for which there is no standard therapy; patients who are not candidates for standard therapy; or patients who have chosen not to pursue standard therapy.
Plasma pharmacokinetics of S-(1) were assessed following the first dose of S-(1) in both studies. Plasma samples were analyzed for S-(1) using a validated LC/MS-MS method.
Treatment cohorts consisted of 3 pts and were expanded to 6 pts in the face of dose-limiting toxicity (DLT); pts could remain on study until the development of progressive disease or an intolerable adverse event. DLT was defined as Gr 4 heme toxicity lasting 7 days; febrile neutropenia, Gr 3 thrombocytopenia with bleeding, Gr 3 elevation of transaminases lasting 7 days or any other Gr 3/4 toxicity other than nausea or vomiting. Results: 25 pts (M:F 16:9, median age 60, range 24-86) were enrolled in 7 dose levels ranging from 7-185 mg/m^2. Pts' cancers included colorectal (6 pts); NSCLC (2); prostate (2); squamous cell carcinoma (2) and 1 pt each with cervical, breast, ovarian, gastric, pancreatic, bladder endometrial, NSCLC, SCLC, glioblastoma, melanoma, renal cell and hepatocellular carcinoma.

[3] = S-(1) Injection mouse PK parameters, IV and oral; format: in vivo
[4] = weekly study summary, dose of 127.5 mg/m^2

## C=C[C@H]1O[C@H]2CC3OC[C@@]3(OC(C)=O)[C@H]3[C@H](OC(=O)c4ccccc4)[C@]4(C(C)(C)O)C[C@H](OC(=O)[C@H](O)[C@H](CC(C)C)NC(=O)OC(C)(C)C)C(C)=C4[C@H](OC(C)=O)[C@H](O1)[C@]23C (stereo partly drawn) [S-(1)]
[1]; 12 mg/kg
  median day of death and median survival time: 14.5 days
[1]; 20 mg/kg
  median day of death and median survival time: 16 days
[1]; monotherapy or combination treatment, intracranial xenograft
  effect against the U251 human CNS tumor cells (in words): moderate effect
[2]; 14 mg/m^2, plasma
  AUC0-24: 457 ± 297 ng·h/mL
  Cl: 35.5 ± 29.7 L/hr/m^2
  Vss: 23.2 ± 74.5 L/m^2
  t1/2: 8.4 ± 11.5 h
[2]; 28 mg/m^2, plasma
  AUC0-24: 682 ± 322 ng·h/mL
  Cl: 43.5 ± 14.5 L/hr/m^2
  Vss: 309 ± 161 L/m^2
  t1/2: 3.45 ± 1.09 h
[2]; 56 mg/m^2, plasma
  AUC0-24: 2070 ± 888 ng·h/mL
  Cl: 28.6 ± 13.2 L/hr/m^2
  Vss: 216 ± 70 L/m^2
  t1/2: 5.66 ± 3.63 h
[2]; 85 mg/m^2, plasma
  AUC0-24: 5970 ± 3900 ng·h/mL
  Cl: 16.6 ± 9.26 L/hr/m^2
  Vss: 142 ± 75.6 L/m^2
  t1/2: 5.52 ± 5.26 h
[2]; 127.5 mg/m^2, plasma
  AUC0-24: 4460 ± 2140 ng·h/mL
  Cl: 30.2 ± 11.9 L/hr/m^2
  Vss: 239 ± 116 L/m^2
  t1/2: 6.59 ± 2.60 h
[2]; Study S-(1)-01, i.v. weekly ×3, observed in one patient at 185 mg/m^2
  dose limiting toxicity: Grade 3 sensory neuropathy; also recorded: Grade 3 peripheral neuropathy
[2]; both sexes, human, plasma, intravenous, Study S-(1)-01, after first dose, read-out: Plasma t1/2, range over dose groups
  half-life: 3.45 to 8.4 h
[2]; weekly study
  dose dependence of AUC (in words): generally dose linear
[2]; [4]
  clearance: 30.2+11.9 L/hr/m^2
  tm: 8.6+1.3 hrs
[2]; weekly study, patients with advanced neoplasms
  anti-neoplastic activity: Anti-neoplastic activity was seen in a patient with pancreatic cancer
[2]; weekly ×3 then 1 week rest, 7-185 mg/m^2, 25 pts
  drug related adverse events: nausea, vomiting, diarrhea, fatigue, anorexia, rash, anemia and peripheral neuropathy
[2]; weekly×3 in heavily pre-treated patients
  dose that can be safely administered: up to 185 mg/m^2
[3]; IV 10/mg/kg
  AUCinf: 7.738 µM·h
  AUClast: 6.298 µM·h
  CL: 24.8 mL/min/kg
  Vdss: 13.35 L/kg
  t½: 6.1 h
[3]; Oral 10 mg/kg
  AUCinf: 3.609 µM·h
  AUClast: 3.434 µM·h
  Cmax: 460 nM
  t½: 5.1 h
[3]; Oral 10 mg/kg vs IV
  F: 47%
[3]; in vivo, Oral 10 mg/kg
  Tmax: 6 h

Source: patent US9132118B2, “Taxane analogs for the treatment of brain cancer” (Tapestry Pharmaceuticals, Inc., priority 2007, dated 2015)
